Data as given in US8290713B2, “Method for predicting protein aggregation and designing aggregation inhibitors” (Lonza Biologics PLLC, priority 2006, dated 2012).

Target: ASYN (α-synuclein) (Homo sapiens, UniProt P37840)
Assay: ASYN aggregation assay in TBS monitored by thioflavin T fluorescence
Assay type: biochemical
Conditions: 50 μM ASYN, 100 μM inhibitor, 50 mM tris, 150 mM NaCl, 20 μM Thioflavin T, 37 C with shaking, 48 hours; sigmoidal fit
Description: All peptides were tested for inhibition of ASYN aggregation in TBS by carrying out aggregation assays with 50 μM ASYN and 100 μM inhibitor with 50 mM tris and 150 mM NaCl and 20 μM Thioflavin T. The reaction volume was 200 μL. Each reaction was set up in a 96 well polypropylene plate with ASYN only and buffer only controls. The reactions were incubated at 37 C with shaking for 48 hours and aggregation was monitored by reading thioflavin T fluorescence.
The kinetic traces were fitted using Zyentiafit software which fits the data to a Sigmoidal function f(x)=k+A/(1+exp(−b(t−t0))) from which the lag time, rate of aggregation and total change in ThT fluorescence may be calculated.

% decrease in ThT fluorescence: 3.7% | % decrease in rate of aggregation: −2.3% | % increase in Lag phase: 43.0%
Substance: Ac-hpviva-NH2 [ZP-0164]
